# Laboratory results taken from ChEMBL document CHEMBL5321270, “Discovery of Pyrazolone Carbothioamide Derivatives as Inhibitors of the Pdr1-KIX Interaction for Combinational Treatment of Azole-Resistant Candidiasis” (J Med Chem, 2023).
# The source made the active and inactive calls. The rule behind the calls is not given here.
# Columns and labels:
# [1] = tested on: Nakaseomyces glabratus; experiment: Antifungal activity against FLC-resistant Candida glabrata 0161 infected in cyclophosphamide immunosuppressed ICR mouse model assessed as inhibition of fungal growth in kidney at ip administration for 5 days; type: functional, organism-based; settings: time 5.0 day
# [2] = tested on: Nakaseomyces glabratus; experiment: Antifungal activity against FLC-resistant Candida glabrata 0161 infected in cyclophosphamide immunosuppressed ICR mouse model assessed as inhibition of fungal growth in kidney at 40 mg/kg,ip administrated for 5 days; type: functional, organism-based; settings: time 5.0 day
# [3] = tested on: Nakaseomyces glabratus; experiment: Synergistic antifungal activity against FLC-resistant Candida glabrata 0161 infected in cyclophosphamide immunosuppressed ICR mouse model assessed as reduction in kidney fungal infection at 5 mg/kg,ip administrated for 5 days in presence of fluconazole by Hematoxylin and eosin staining based analysis; type: functional, organism-based; settings: time 5.0 day
# [4] = AUC (0-infinity) in ICR mouse at 10 mg/kg,po measured upto 24 hrs by LC-MS/MS analysis; type: ADME, organism-based; set-up: time < 24 hrs, dose 10 mg/kg, route po; settings: in vivo
# [5] = tested on: Nakaseomyces glabratus; experiment: Antifungal activity against fluconazole-resistant Candida glabrata 0161 assessed as fungal growth inhibition incubated for 48 hrs by microplate reader assay; type: functional
# [6] = tested on: Nakaseomyces glabratus; experiment: Antifungal activity against fluconazole-resistant Candida glabrata 0161 assessed as fractional inhibitory concentration incubated for 48 hrs in presence of fluconazole by microplate reader assay; type: functional
# [7] = tested on: Nakaseomyces glabratus; experiment: Antifungal activity against fluconazole-resistant Candida glabrata 0161 assessed as fluconazole fractional inhibitory concentration incubated for 48 hrs in presence of fluconazole by microplate reader assay; type: functional
# [8] = tested on: Nakaseomyces glabratus; experiment: Synergistic antifungal activity against fluconazole-resistant Candida glabrata 0161 assessed as fractional inhibitory concentration index incubated for 48 hrs in presence of fluconazole by checkerboard microdilution method; type: functional
# [9] = tested on: Nakaseomyces glabratus; experiment: Antifungal activity against fluconazole-resistant Candida glabrata 9256 assessed as fungal growth inhibition incubated for 48 hrs by microplate reader assay; type: functional
# [10] = tested on: Nakaseomyces glabratus; experiment: Antifungal activity against fluconazole-resistant Candida glabrata 8535 assessed as fungal growth inhibition incubated for 48 hrs by microplate reader assay; type: functional
# [11] = tested on: Candida parapsilosis; experiment: Antifungal activity against Candida parapsilosis 20090 assessed as fungal growth inhibition incubated for 48 hrs by microplate reader assay; type: functional; settings: Lodderomyces parapsilosis
# [12] = tested on: [Candida] auris; experiment: Antifungal activity against Candida auris 0030 assessed as fungal growth inhibition incubated for 48 hrs by microplate reader assay; type: functional; settings: Candidozyma auris
# [13] = tested on: Aspergillus fumigatus; experiment: Antifungal activity against Aspergillus fumigatus 7544 assessed as fungal growth inhibition incubated for 48 hrs by microplate reader assay; type: functional
# [14] = tested on: Nannizzia gypsea; experiment: Antifungal activity against Microsporum gypseum assessed as fungal growth inhibition incubated for 48 hrs by microplate reader assay; type: functional
# [15] = tested on: Trichophyton rubrum; experiment: Antifungal activity against Trichophyton rubrum assessed as fungal growth inhibition incubated for 48 hrs by microplate reader assay; type: functional
# [16] = tested on: Cryptococcus neoformans; experiment: Antifungal activity against Cryptococcus neoformans H99 assessed as fungal growth inhibition incubated for 48 hrs by microplate reader assay; type: functional
# [17] = Aqueous solubility of compound; type: physicochemical
# [18] = Cytotoxicity against human HUVEC cells incubated for 48 hrs by CCK-8 assay; type: toxicity, cell-based
# [19] = tested on: Nakaseomyces glabratus; experiment: Antifungal activity against fluconazole-resistant Candida glabrata 0161 assessed as fungal growth inhibition at 4 ug/ml incubated for 48 hrs by time-growth curve assay; type: functional, organism-based; settings: dose 4.0 µg/ml
# [20] = tested on: Nakaseomyces glabratus; experiment: Synergistic antifungal activity against fluconazole-resistant Candida glabrata 0161 assessed as fungal growth inhibition incubated for 48 hrs in presence of fluconazole by time-growth curve assay; type: functional, organism-based
# [21] = tested on: Nakaseomyces glabratus; experiment: Antifungal activity against fluconazole-resistant Candida glabrata 0161 assessed as inhibition of fungal growth at 2 to 16 ug/ml incubated for 48 hrs by Spot plating assay; type: functional, organism-based; settings: dose 2-16 µg/ml
# [22] = tested on: Nakaseomyces glabratus; experiment: Synergistic antifungal activity against fluconazole-resistant Candida glabrata 0161 assessed as inhibition of fungal growth at 2 to 16 ug/ml incubated for 48 hrs in presence of fluconazole by Spot plating assay; type: functional, organism-based; settings: dose 2-16 µg/ml
# [23] = tested on: Nakaseomyces glabratus; experiment: Antifungal activity against fluconazole-resistant Candida glabrata 0161 assessed as inhibition of fungal biofilm formation at 32 ug/ml incubated for 24 hrs by XXT reduction menadione assay; type: functional
# [24] = tested on: Nakaseomyces glabratus; experiment: Synergistic antifungal activity against fluconazole-resistant Candida glabrata 0161 assessed as inhibition of fungal biofilm formation at 32 ug/ml incubated for 24 hrs in presence of fluconazole by XXT reduction menadione assay; type: functional
# [25] = tested on: Nakaseomyces glabratus; experiment: Antifungal activity against fluconazole-resistant Candida glabrata 0161 assessed as inhibition of fungal mature biofilm formation at 0.25 to 64 ug/ml incubated for 24 hrs by XXT reduction menadione assay; type: functional, organism-based; settings: dose 0.25-64 µg/ml
# [26] = tested on: Nakaseomyces glabratus; experiment: Synergistic antifungal activity against fluconazole-resistant Candida glabrata 0161 assessed as inhibition of fungal mature biofilm formation at 1 to 64 ug/ml incubated for 24 hrs in presence of fluconazole by XXT reduction menadione assay; type: functional, organism-based; settings: dose 1-64 µg/ml
# [27] = tested on: Nakaseomyces glabratus; experiment: Antifungal activity against fluconazole-resistant Candida glabrata 0161 assessed as increase in Nile red accumulation at 50 uM incubated for 30 mins by nile red staining based confocal microscopic analysis; type: functional, organism-based
# [28] = tested on: Nakaseomyces glabratus; experiment: Synergistic antifungal activity against fluconazole-resistant Candida glabrata 0161 assessed as inhibition of Rhodamine 6G efflux at 1 to 8 ug/ml incubated for 25 hrs in presence of fluconazole by Rhodamine 6G staining based fluorescence assay; type: functional, organism-based; settings: dose 1-8 µg/ml
# [29] = tested on: Nakaseomyces glabratus; experiment: Synergistic antifungal activity against fluconazole-resistant Candida glabrata 0161 assessed as downregulation of PDR1 gene expression at 4 ug/ml in presence of fluconazole by RT-PCR analysis; type: functional, organism-based; settings: dose 4.0 µg/ml
# [30] = tested on: Nakaseomyces glabratus; experiment: Synergistic antifungal activity against fluconazole-resistant Candida glabrata 0161 assessed as downregulation of CDR1 gene expression at 4 ug/ml in presence of fluconazole by RT-PCR analysis; type: functional, organism-based; settings: dose 4.0 µg/ml
# [31] = tested on: Nakaseomyces glabratus; experiment: Synergistic antifungal activity against fluconazole-resistant Candida glabrata 0161 assessed as downregulation of CDR2 gene expression at 4 ug/ml in presence of fluconazole by RT-PCR analysis; type: functional, organism-based; settings: dose 4.0 µg/ml
# [32] = tested on: Nakaseomyces glabratus; experiment: Antifungal activity against FLC-resistant Candida glabrata 0161 infected in cyclophosphamide immunosuppressed ICR mouse model assessed as inhibition of fungal growth in kidney at 5 mg/kg,ip administrated for 5 days; type: functional, organism-based; settings: time 5.0 day
# [33] = tested on: Nakaseomyces glabratus; experiment: Synergistic antifungal activity against FLC-resistant Candida glabrata 0161 infected in cyclophosphamide immunosuppressed ICR mouse model assessed as inhibition of fungal growth in kidney at 5 mg/kg,ip administrated in presence of fluconazole for 5 days; type: functional, organism-based; settings: time 5.0 day
# [34] = Half life in ICR mouse at 2 mg/kg,iv measured upto 24 hrs by LC-MS/MS analysis; type: ADME, organism-based; settings: in vivo
# [35] = Half life in ICR mouse at 10 mg/kg,po measured upto 24 hrs by LC-MS/MS analysis; type: ADME, organism-based; settings: in vivo
# [36] = Tmax in ICR mouse at 2 mg/kg,iv measured upto 24 hrs by LC-MS/MS analysis; type: ADME, organism-based; settings: in vivo
# [37] = Tmax in ICR mouse at 10 mg/kg,po measured upto 24 hrs by LC-MS/MS analysis; type: ADME, organism-based; settings: in vivo
# [38] = Cmax in ICR mouse at 10 mg/kg,po measured upto 24 hrs by LC-MS/MS analysis; type: ADME, organism-based; set-up: dose 10 mg/kg, time < 24 hrs, route po; settings: in vivo
# [39] = AUC (0-t) in ICR mouse at 10 mg/kg,po measured upto 24 hrs by LC-MS/MS analysis; type: ADME, organism-based; set-up: time < 24 hrs, dose 10 mg/kg, route po; settings: in vivo
# [40] = Clearance in ICR mouse at 2 mg/kg,iv measured upto 24 hrs by LC-MS/MS analysis; type: ADME, organism-based; settings: in vivo
# [41] = Oral bioavailability in ICR mouse at 10 mg/kg measured upto 24 hrs by LC-MS/MS analysis; type: ADME, organism-based; settings: in vivo
smiles,measurement,setting,value
Nc1cc(=O)n(C(=S)Nc2ccc3c(c2)CCC3)[nH]1,Activity,[1],Dose-Dependent Effect
same,Activity,[2],Active
same,Activity,[3],Active
same,AUC(0-inf),[4],390 ng·h/mL
same,MIC,[5],0.25 µg/mL
same,FIC,[6],0.063 µg/mL
same,fluconazole MIC in combination,[7],1 µg/mL
same,fractional inhibitory concentration index (FICI),[8],0.28
same,MIC,[9],0.25 µg/mL
same,MIC,[10],0.25 µg/mL
same,MIC,[11],4 µg/mL
same,MIC,[12],2 µg/mL
same,MIC,[13],16 µg/mL
same,MIC,[14],1 µg/mL
same,MIC,[15],1 µg/mL
same,MIC,[16],0.063 µg/mL
same,solubility,[17],22.1 µg/mL
same,IC50 at 48 h,[18],> 83 µM
same,Activity,[19],Active
same,Activity,[20],Dose-Dependent Effect
same,Activity,[21],Active
same,Activity,[22],Active
same,inhibition at 32 µg/mL,[23],40%
same,inhibition at 32 µg/mL,[24],73%
same,inhibition,[25],inactive
same,inhibition,[26],Active
same,Activity,[27],Active
same,Activity,[28],Active
same,Activity,[29],Active
same,Activity,[30],Active
same,Activity,[31],Active
same,Activity,[32],Active
same,Activity,[33],Active
same,half-life,[34],51.6 min
same,half-life,[35],36 min
same,Tmax,[36],4.8 min
same,Tmax,[37],15 min
same,Cmax,[38],875 ng/mL
same,AUC(0-t) at 24 h,[39],389 ng·h/mL
same,clearance,[40],68.6 mL/min/kg
same,bioavailability,[41],15.9%
